Reference: the supplement of paper PMC8882468
± gives the standard deviation of the averaged measurements.

tested on: HCI-008 (organoid from a HER2-enriched breast cancer xenograft); assay: CTG-3D luminescence at 96 h relative to day-0 seeding control (ratio to day 0); higher = more growth / less cytotoxicity; PDxO 3D drug screen, 96 h, CTG-3D normalised to day-0 seeding control.; conditions: 12.5 pM; days in culture: 228

Row | Compound | CTG-3D luminescence at 96 h
1 | COc1cc2c(Oc3ccc4[nH]c(C)cc4c3F)ncnc2cc1OCCCN1CCCC1 [cediranib] | 1.83 ± 0.8
2 | CC(C)n1nc(-c2ccc3oc(N)nc3c2)c2c(N)ncnc21 [sapanisertib] | 1.63 ± 0.39
3 | Cc1cc(Nc2ncnc3ccc(NC4=NC(C)(C)CO4)cc23)ccc1Oc1ccn2ncnc2c1 [tucatinib] | 1.79 ± 0.28
4 | C[C@H](NC(=O)CCC(F)(F)F)C(=O)N[C@@H]1C(=O)N(CCO)c2ncccc2-c2ccccc21 [crenigacestat] | 1.8 ± 0.26
5 | C[C@]12CC[C@@H]3c4ccc(O)cc4C[C@@H](CCCCCCCCC[S+]([O-])CCCC(F)(F)C(F)(F)F)[C@H]3[C@@H]1CC[C@@H]2O (some centres not stated) [fulvestrant] | 1.6 ± 0.34
6 | O=C(c1ccc(F)c(F)c1Nc1ccc(I)cc1F)N1CC(O)([C@@H]2CCCCN2)C1 [cobimetinib] | 1.65 ± 0.23
7 | O=C(/C=C/c1cccnc1)NCCCCC1CCN(C(=O)c2ccccc2)CC1 [FK866] | 1.646 ± 0.0026
8 | CS(=O)(=O)c1ccc(C(=O)Nc2ccc(Cl)c(-c3ccccn3)c2)c(Cl)c1 [vismodegib] | 1.56 ± 0.085
9 | C=CCn1c(=O)c2cnc(Nc3ccc(N4CCN(C)CC4)cc3)nc2n1-c1cccc(C(C)(C)O)n1 [adavosertib] | 2.01 ± 0.21

same assay, conditions: 12.5 pM; days in culture: 244

Row | Compound | CTG-3D luminescence at 96 h
10 | COc1cc2c(Oc3ccc4[nH]c(C)cc4c3F)ncnc2cc1OCCCN1CCCC1 [cediranib] | 1.25
11 | CC(C)n1nc(-c2ccc3oc(N)nc3c2)c2c(N)ncnc21 [sapanisertib] | 1.15
12 | Cc1cc(Nc2ncnc3ccc(NC4=NC(C)(C)CO4)cc23)ccc1Oc1ccn2ncnc2c1 [tucatinib] | 1.41
13 | C[C@H](NC(=O)CCC(F)(F)F)C(=O)N[C@@H]1C(=O)N(CCO)c2ncccc2-c2ccccc21 [crenigacestat] | 1.23
14 | C[C@]12CC[C@@H]3c4ccc(O)cc4C[C@@H](CCCCCCCCC[S+]([O-])CCCC(F)(F)C(F)(F)F)[C@H]3[C@@H]1CC[C@@H]2O (some centres not stated) [fulvestrant] | 1.4
15 | O=C(c1ccc(F)c(F)c1Nc1ccc(I)cc1F)N1CC(O)([C@@H]2CCCCN2)C1 [cobimetinib] | 1.27
16 | O=C(/C=C/c1cccnc1)NCCCCC1CCN(C(=O)c2ccccc2)CC1 [FK866] | 1.37
17 | CS(=O)(=O)c1ccc(C(=O)Nc2ccc(Cl)c(-c3ccccn3)c2)c(Cl)c1 [vismodegib] | 1.7
18 | C=CCn1c(=O)c2cnc(Nc3ccc(N4CCN(C)CC4)cc3)nc2n1-c1cccc(C(C)(C)O)n1 [adavosertib] | 1.42

same assay, conditions: 0.00025 µM; days in culture: 228

Row | Compound | CTG-3D luminescence at 96 h
19 | COc1cc2c(Oc3ccc4[nH]c(C)cc4c3F)ncnc2cc1OCCCN1CCCC1 [cediranib] | 1.99 ± 0.16
20 | CC(C)n1nc(-c2ccc3oc(N)nc3c2)c2c(N)ncnc21 [sapanisertib] | 1.78 ± 0.018
21 | Cc1cc(Nc2ncnc3ccc(NC4=NC(C)(C)CO4)cc23)ccc1Oc1ccn2ncnc2c1 [tucatinib] | 1.66 ± 0.056
22 | C[C@H](NC(=O)CCC(F)(F)F)C(=O)N[C@@H]1C(=O)N(CCO)c2ncccc2-c2ccccc21 [crenigacestat] | 1.66 ± 0.04
23 | C[C@]12CC[C@@H]3c4ccc(O)cc4C[C@@H](CCCCCCCCC[S+]([O-])CCCC(F)(F)C(F)(F)F)[C@H]3[C@@H]1CC[C@@H]2O (some centres not stated) [fulvestrant] | 1.76 ± 0.31
24 | O=C(c1ccc(F)c(F)c1Nc1ccc(I)cc1F)N1CC(O)([C@@H]2CCCCN2)C1 [cobimetinib] | 1.7 ± 0.1
25 | O=C(/C=C/c1cccnc1)NCCCCC1CCN(C(=O)c2ccccc2)CC1 [FK866] | 1.91 ± 0.069
26 | CS(=O)(=O)c1ccc(C(=O)Nc2ccc(Cl)c(-c3ccccn3)c2)c(Cl)c1 [vismodegib] | 1.74 ± 0.018
27 | C=CCn1c(=O)c2cnc(Nc3ccc(N4CCN(C)CC4)cc3)nc2n1-c1cccc(C(C)(C)O)n1 [adavosertib] | 1.96 ± 0.074

same assay, conditions: 0.00025 µM; days in culture: 244

Row | Compound | CTG-3D luminescence at 96 h
28 | COc1cc2c(Oc3ccc4[nH]c(C)cc4c3F)ncnc2cc1OCCCN1CCCC1 [cediranib] | 1.7
29 | CC(C)n1nc(-c2ccc3oc(N)nc3c2)c2c(N)ncnc21 [sapanisertib] | 1.75
30 | Cc1cc(Nc2ncnc3ccc(NC4=NC(C)(C)CO4)cc23)ccc1Oc1ccn2ncnc2c1 [tucatinib] | 1.81
31 | C[C@H](NC(=O)CCC(F)(F)F)C(=O)N[C@@H]1C(=O)N(CCO)c2ncccc2-c2ccccc21 [crenigacestat] | 1.65
32 | C[C@]12CC[C@@H]3c4ccc(O)cc4C[C@@H](CCCCCCCCC[S+]([O-])CCCC(F)(F)C(F)(F)F)[C@H]3[C@@H]1CC[C@@H]2O (some centres not stated) [fulvestrant] | 1.74
33 | O=C(c1ccc(F)c(F)c1Nc1ccc(I)cc1F)N1CC(O)([C@@H]2CCCCN2)C1 [cobimetinib] | 1.9
34 | O=C(/C=C/c1cccnc1)NCCCCC1CCN(C(=O)c2ccccc2)CC1 [FK866] | 1.87
35 | CS(=O)(=O)c1ccc(C(=O)Nc2ccc(Cl)c(-c3ccccn3)c2)c(Cl)c1 [vismodegib] | 2.21
36 | C=CCn1c(=O)c2cnc(Nc3ccc(N4CCN(C)CC4)cc3)nc2n1-c1cccc(C(C)(C)O)n1 [adavosertib] | 1.98

same assay, conditions: 0.005 µM; days in culture: 228

Row | Compound | CTG-3D luminescence at 96 h
37 | COc1cc2c(Oc3ccc4[nH]c(C)cc4c3F)ncnc2cc1OCCCN1CCCC1 [cediranib] | 1.53 ± 0.43
38 | CC(C)n1nc(-c2ccc3oc(N)nc3c2)c2c(N)ncnc21 [sapanisertib] | 0.85 ± 0.15
39 | Cc1cc(Nc2ncnc3ccc(NC4=NC(C)(C)CO4)cc23)ccc1Oc1ccn2ncnc2c1 [tucatinib] | 1.49 ± 0.094
40 | C[C@H](NC(=O)CCC(F)(F)F)C(=O)N[C@@H]1C(=O)N(CCO)c2ncccc2-c2ccccc21 [crenigacestat] | 1.56 ± 0.66
41 | C[C@]12CC[C@@H]3c4ccc(O)cc4C[C@@H](CCCCCCCCC[S+]([O-])CCCC(F)(F)C(F)(F)F)[C@H]3[C@@H]1CC[C@@H]2O (some centres not stated) [fulvestrant] | 1.34 ± 0.093
42 | O=C(c1ccc(F)c(F)c1Nc1ccc(I)cc1F)N1CC(O)([C@@H]2CCCCN2)C1 [cobimetinib] | 1.33 ± 0.13
43 | O=C(/C=C/c1cccnc1)NCCCCC1CCN(C(=O)c2ccccc2)CC1 [FK866] | 0.904 ± 0.53
44 | CS(=O)(=O)c1ccc(C(=O)Nc2ccc(Cl)c(-c3ccccn3)c2)c(Cl)c1 [vismodegib] | 1.17 ± 0.15
45 | C=CCn1c(=O)c2cnc(Nc3ccc(N4CCN(C)CC4)cc3)nc2n1-c1cccc(C(C)(C)O)n1 [adavosertib] | 1.71 ± 0.41

same assay, conditions: 0.005 µM; days in culture: 244

Row | Compound | CTG-3D luminescence at 96 h
46 | COc1cc2c(Oc3ccc4[nH]c(C)cc4c3F)ncnc2cc1OCCCN1CCCC1 [cediranib] | 1.65
47 | CC(C)n1nc(-c2ccc3oc(N)nc3c2)c2c(N)ncnc21 [sapanisertib] | 1.82
48 | Cc1cc(Nc2ncnc3ccc(NC4=NC(C)(C)CO4)cc23)ccc1Oc1ccn2ncnc2c1 [tucatinib] | 2.11
49 | C[C@H](NC(=O)CCC(F)(F)F)C(=O)N[C@@H]1C(=O)N(CCO)c2ncccc2-c2ccccc21 [crenigacestat] | 1.55
50 | C[C@]12CC[C@@H]3c4ccc(O)cc4C[C@@H](CCCCCCCCC[S+]([O-])CCCC(F)(F)C(F)(F)F)[C@H]3[C@@H]1CC[C@@H]2O (some centres not stated) [fulvestrant] | 1.94
51 | O=C(c1ccc(F)c(F)c1Nc1ccc(I)cc1F)N1CC(O)([C@@H]2CCCCN2)C1 [cobimetinib] | 1.87
52 | O=C(/C=C/c1cccnc1)NCCCCC1CCN(C(=O)c2ccccc2)CC1 [FK866] | 1.86
53 | CS(=O)(=O)c1ccc(C(=O)Nc2ccc(Cl)c(-c3ccccn3)c2)c(Cl)c1 [vismodegib] | 1.95
54 | C=CCn1c(=O)c2cnc(Nc3ccc(N4CCN(C)CC4)cc3)nc2n1-c1cccc(C(C)(C)O)n1 [adavosertib] | 1.93

same assay, conditions: 0.1 µM; days in culture: 228

Row | Compound | CTG-3D luminescence at 96 h
55 | COc1cc2c(Oc3ccc4[nH]c(C)cc4c3F)ncnc2cc1OCCCN1CCCC1 [cediranib] | 2.02 ± 0.13
56 | CC(C)n1nc(-c2ccc3oc(N)nc3c2)c2c(N)ncnc21 [sapanisertib] | 0.502 ± 0.18
57 | Cc1cc(Nc2ncnc3ccc(NC4=NC(C)(C)CO4)cc23)ccc1Oc1ccn2ncnc2c1 [tucatinib] | 1.85 ± 0.34
58 | C[C@H](NC(=O)CCC(F)(F)F)C(=O)N[C@@H]1C(=O)N(CCO)c2ncccc2-c2ccccc21 [crenigacestat] | 1.47 ± 0.48
59 | C[C@]12CC[C@@H]3c4ccc(O)cc4C[C@@H](CCCCCCCCC[S+]([O-])CCCC(F)(F)C(F)(F)F)[C@H]3[C@@H]1CC[C@@H]2O (some centres not stated) [fulvestrant] | 1.68 ± 0.074
60 | O=C(c1ccc(F)c(F)c1Nc1ccc(I)cc1F)N1CC(O)([C@@H]2CCCCN2)C1 [cobimetinib] | 1.14 ± 0.47
61 | O=C(/C=C/c1cccnc1)NCCCCC1CCN(C(=O)c2ccccc2)CC1 [FK866] | 0.206 ± 0.072
62 | CS(=O)(=O)c1ccc(C(=O)Nc2ccc(Cl)c(-c3ccccn3)c2)c(Cl)c1 [vismodegib] | 1.72 ± 0.088
63 | C=CCn1c(=O)c2cnc(Nc3ccc(N4CCN(C)CC4)cc3)nc2n1-c1cccc(C(C)(C)O)n1 [adavosertib] | 1.89 ± 0.26

same assay, conditions: 0.1 µM; days in culture: 244

Row | Compound | CTG-3D luminescence at 96 h
64 | COc1cc2c(Oc3ccc4[nH]c(C)cc4c3F)ncnc2cc1OCCCN1CCCC1 [cediranib] | 2.04
65 | CC(C)n1nc(-c2ccc3oc(N)nc3c2)c2c(N)ncnc21 [sapanisertib] | 0.854
66 | Cc1cc(Nc2ncnc3ccc(NC4=NC(C)(C)CO4)cc23)ccc1Oc1ccn2ncnc2c1 [tucatinib] | 1.99
67 | C[C@H](NC(=O)CCC(F)(F)F)C(=O)N[C@@H]1C(=O)N(CCO)c2ncccc2-c2ccccc21 [crenigacestat] | 1.79
68 | C[C@]12CC[C@@H]3c4ccc(O)cc4C[C@@H](CCCCCCCCC[S+]([O-])CCCC(F)(F)C(F)(F)F)[C@H]3[C@@H]1CC[C@@H]2O (some centres not stated) [fulvestrant] | 2.15
69 | O=C(c1ccc(F)c(F)c1Nc1ccc(I)cc1F)N1CC(O)([C@@H]2CCCCN2)C1 [cobimetinib] | 1.57
70 | O=C(/C=C/c1cccnc1)NCCCCC1CCN(C(=O)c2ccccc2)CC1 [FK866] | 0.263
71 | CS(=O)(=O)c1ccc(C(=O)Nc2ccc(Cl)c(-c3ccccn3)c2)c(Cl)c1 [vismodegib] | 2.27
72 | C=CCn1c(=O)c2cnc(Nc3ccc(N4CCN(C)CC4)cc3)nc2n1-c1cccc(C(C)(C)O)n1 [adavosertib] | 1.91
